Entries after “also recorded” stand apart in the source; their conditions may differ.
Legend:
[1] = biological target: 5-HT2A receptor (Homo sapiens, UniProt P28223); conditions: cited from earlier work
[2] = tested on: amygdala reactivity; conditions: fMRI; cited from earlier work
[3] = tested on: healthy subjects; conditions: cited from earlier work
[4] = tested on: patients with anxiety disorder without somatic illness; test: Same phase II study: acute alterations of mind (5D-ASC) and mystical-type effects (MEQ30); assay type: in vivo, human
Method: Each of the four LSD/Placebo sessions lasted 12 hours from 8 AM to 8 PM. Sessions took place in a quiet room at the Ambulatory Study Center of the University Hospital Basel (Basel center) or in the private practice office of Dr. P. Gasser (Solothurn center). At the beginning of the session, current mood and mental state were discussed and a urine drug screen was taken and any AEs since the last visit were recorded. Any open questions or concerns were addressed by the investigator. The participants were advised to lie in a bed or sit comfortably on a chair. Other than going to the bathroom, the participants remained in the treatment room for the entire 12-hour experimental session and were supervised constantly up to 8-12 hours after LSD/placebo administration depending on the participant's response and as needed. The subjective effects of LSD at the dose used in this study were expected to last 8-12 hours (Gasser et al., 2014; Holze et al., 2021; Schmid et al., 2015). […] During the LSD/placebo effect, the participants were instructed to focus their awareness inward. Subjects were encouraged to wear eye shades during the first hours (or the light was dimmed) as well as to listen to music and discussions/talking much with the investigator were discouraged. Subjects were allowed to remain mostly undisturbed with brief physical contacts every two hours when heart rate and blood pressure were measured. At the end of the sessions, 10-12 hours after LSD/placebo administration, the acute subjective peak effects were retrospectively rated by the participants using the 5D-ASC, SCQ, AMRS, and VASs and the experience was discussed. Ten-twelve hours after LSD/placebo administration the participants were allowed to return to their home with company and supervision provided by the partner, a relative, or a friend. […]
The 5 dimensions of altered states of consciousness (5D-ASC) scale is a visual analog scale consisting of 94 items (Dittrich, 1998; Studerus et al., 2010). […] Each item of the scale was scored on a 0-100 mm VAS. […]

[5] = tested on: patients with anxiety disorder without somatic illness; test: Same phase II study: adverse events; assay type: in vivo, human
Text: Subjects were asked to report any adverse events (AEs) during the sessions or between study sessions at the beginning of the next session/visit and at the end of study (EOS) visit. The investigator rated hallucinogen-specific AEs that occurred during the session using a checklist adapted from (Gasser et al., 2014; Griffiths et al., 2006; Schmid et al., 2015). Peak effects were rated at the end of the session based on the patients description and investigators' observation by the investigator as “not reported”, “mild”, “moderate”, or “severe” for: headache, dizziness, dry mouth, nausea, anxiety, paranoid thinking, emotional distress, emotional lability, blurred vision, chills/feeling cold, impaired balance. Heart rate and blood pressure were measured at 2-hourly intervals (Grob et al., 2011).
AEs were described and recorded on the subject's CRF, regardless of the severity or relationship to the IMP. AEs were rated for severity and the potential relationship to the study interventions was evaluated by the investigator according standard criteria. Subjects with AEs were treated appropriately. Abnormal laboratory values not explained by the patients' disease had to be repeated until normal or until the abnormality caould be explained and the subject's safety was not at risk.

[6] = tested on: adrenergic α1 receptors; conditions: cited from earlier work
[7] = 200 μg oral, cited from earlier work
[8] = tested on: dopaminergic D1-3 receptors; conditions: cited from earlier work
[9] = tested on: healthy participants; conditions: in vivo; cited from earlier work
[10] = tested on: 5-HT1 receptors; conditions: cited from earlier work
[11] = follow-up visits, not including treatment sessions

Chain of 5-HT2A receptor (P28223 whole entry): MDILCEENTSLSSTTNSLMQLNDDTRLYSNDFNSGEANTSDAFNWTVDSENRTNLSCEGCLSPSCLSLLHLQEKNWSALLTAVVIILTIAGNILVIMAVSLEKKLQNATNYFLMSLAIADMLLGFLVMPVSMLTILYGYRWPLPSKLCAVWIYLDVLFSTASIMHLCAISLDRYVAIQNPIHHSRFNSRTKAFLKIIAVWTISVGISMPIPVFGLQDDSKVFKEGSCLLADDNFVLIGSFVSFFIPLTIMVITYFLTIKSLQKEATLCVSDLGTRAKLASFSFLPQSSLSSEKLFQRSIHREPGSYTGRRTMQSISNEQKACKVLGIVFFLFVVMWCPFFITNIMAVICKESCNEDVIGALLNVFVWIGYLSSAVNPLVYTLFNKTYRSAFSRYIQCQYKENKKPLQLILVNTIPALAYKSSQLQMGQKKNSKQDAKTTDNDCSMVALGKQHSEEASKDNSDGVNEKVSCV

In the case of `CCN(CC)C(=O)[C@@H]1C=C2c3cccc4[nH]cc(c34)C[C@H]2N(C)C1` [LSD, lysergic acid diethylamide], the “activity at the 5-HT2A receptor” value [1] is given as “partial 5-HT2A receptor agonist; also recorded: agonists”, the “amygdala reactivity to fearful stimuli” value [2] is given as “decreased” and the “duration of alterations in waking consciousness” value ([3]; 200 μg oral, 16 healthy subjects) is given as 12 h. The “blood pressure, heart rate, body temperature, pupil size, plasma cortisol, prolactin, oxytocin, and epinephrine” value ([3]; 200 μg oral) was “significantly increased”, the “time until adverse effects completely subsided” value ([3]; 200 μg oral) was ≤ 72 h and the “difficulty concentrating, number of subjects of 16 participants” value ([3]; 200 μg, acute AE) was 10. The “dizziness, number of subjects of 16 participants” value ([3]; 200 μg, acute AE) was 7, the “headache, number of subjects of 16 participants” value ([3]; 200 μg, acute AE) was 9 and the “nausea, number of subjects of 16 participants” value ([3]; 200 μg, acute AE) was 4. For the same compound, the “transient moderate anxiety, number of subjects of 16 participants” value ([3]; 200 μg, acute AE) was 4, the “duration of LSD effects after administration” value ([3]; 200 μg) was “up to 12 hours” and the “time of peak LSD effects” value ([3]; 200 μg) was 2 h. The “ratings of mystical-type experiences on the MEQ30 questionnaire” value ([4]; 200 μg vs placebo, similar at first and second session) was “significantly and strongly increased”, the “alterations in all scales of the 5D-ASC questionnaire” value ([4]; 200 μg, all p<0.001 vs. placebo, comparable at session 1 and 2) was “significant and marked alterations” and the “acute effects (5D-ASC) compared with healthy subjects given the same dose” value ([4]; 200 μg, comparison with Holze et al., 2021) was “generally greater”. The “tolerability after dose lowered” value ([5]; 100 μg instead of 200 μg, patient with paranoia SAE) was “tolerated well”, the “fatigue, total of reported AEs” value ([5]; all follow-up visits of the period, not including treatment sessions) was 9 and the “anxiety at onset of the LSD effect” value ([5]; during the treatment session) was “two”. For the same compound, the headache ([5]; during the treatment session) was “one”, the nausea ([5]; during the treatment session) was “two” and the strong anxiety/paranoia ([5]; during the treatment session) was “one”. The “SAE: paranoia during the LSD session (expected reaction to LSD)” value ([5]; first LSD session, 200 μg) was “one”, the “common cold, total of reported AEs” value [5, 11] was 7 and the “depression, total of reported AEs” value [5, 11] was 3. For the same compound, the “difficulty concentrating, total of reported AEs” value [5, 11] was 5, the “headache, total of reported AEs” value [5, 11] was 6 and the “nausea, total of reported AEs” value [5, 11] was 3. For the same compound, the “vertigo, total of reported AEs” value [5, 11] was 5, the “activity at adrenergic α1 receptors” value [6] was “stimulates” and the “time to maximal concentrations of LSD” value ([7]; 16 healthy subjects) was 1.5 h. For the same compound, the half-life ([7]; first-order kinetics up to 12 hours) was 3.6 h, the “activity at dopaminergic D1-3 receptors” value [8] was “stimulates” and the “emotional empathy and prosociality” value [9] was “enhancing”. The “recognition of fearful and sad faces” value [9] was “decreasing” and the “activity at 5-HT1 receptors” value [10] was “stimulates”.

From US20220273628A1, “EFFECTS OF LYSERGIC ACID DIETHYLAMIDE (LSD) AND OF LSD ANALOGS TO ASSIST PSY[…] G[…] DISORDER OR OTHER ANXIETY NOT RELATED TO LIFE-T[…]” (Universitätsspital Basel, priority 2021, published 2022)
